# According to patent US20230293407A1, “Compositions Comprising (Bio)-Alkanediols with Antimicrobials for Product Protection” (Symrise AG, priority 2020, published 2023):
# How the values were obtained:
# Candida albicans = experiment: preservation efficacy test (PET), European Pharmacopoeia 5.1.3; format: cell-based
# Staphylococcus aureus = experiment: as above; format: cell-based
# Aspergillus brasiliensis = experiment: as above; format: cell-based; conditions: for number of microorganisms, 28 days / number of microorganisms, 14 days: Aspergillus brasiliensis (AB)
# Escherichia coli = experiment: as above; format: cell-based; conditions: for number of microorganisms, 2 days / number of microorganisms, 7 days / number of microorganisms, 14 days / number of microorganisms, 28 days: Escherichia coli (EC)
# [1] = maximum water solubility of alkanediols, visual observation; format: physicochemical; conditions: ambient temperature after 24 h storage at 5° C.
# From the text: The water solubility of a substance is the saturation mass concentration of the substance in water at a given temperature. The determination of the solubility in water relates to essentially pure substances which are stable in water and not volatile. The determination of the water solubility of the alkanediols is further described in the following Example 2.
# For the determination of the maximum water solubility of an alkanediol, water and different concentrations of the respective alkanediol were blended by stirring. […] The determination of whether the alkanediol has dissolved in water is based entirely on visual observation.
# yeast = experiment: preservation efficacy test (PET), overview of the effect against yeast; format: cell-based, Candida albicans; conditions: PET in a shampoo formulation, result in words on Table 8
# Pseudomonas aeruginosa = experiment: preservation efficacy test (PET), European Pharmacopoeia 5.1.3; format: cell-based; conditions: for PA germ count, 2 days / PA germ count, 7 days / PA germ count, 14 days / PA germ count, 28 days: substance at given % in test formulation
# [2] = PET, Candida albicans (CA), 28 days after inoculation
# [3] = PET, Staphylococcus aureus (SA), 7 days after inoculation
# [4] = PET, Staphylococcus aureus (SA), 14 days after inoculation
# [5] = PET, Staphylococcus aureus (SA), 28 days after inoculation
# [6] = 28 days after inoculation, o/w emulsion (Table 53)
# [7] = 28 days after inoculation, substance at given % in test formulation
# [8] = PET in shampoo, Candida albicans (CA), 28 days after inoculation
# [9] = 7 days after inoculation, o/w emulsion (Table 53)
# [10] = 7 days after inoculation, substance at given % in test formulation
# [11] = 14 days after inoculation, o/w emulsion (Table 53)
# [12] = 14 days after inoculation, substance at given % in test formulation
# [13] = PET in shampoo, Staphylococcus aureus (SA), 14 days after inoculation
# [14] = PET in shampoo, Staphylococcus aureus (SA), 28 days after inoculation
# [15] = 2 days after inoculation, o/w emulsion (Table 53)
structure (smiles),measurement,setting,value
"CCCCCCCC(O)CO (stereo not drawn) [1,2-Nonanediol]","number of microorganisms, 7 days","Candida albicans; PET, Candida albicans (CA), 7 days after inoculation",120.000
same,"number of microorganisms, 14 days","Candida albicans; PET, Candida albicans (CA), 14 days after inoculation",890
same,"number of microorganisms, 28 days",Candida albicans; [2],1
same,"number of microorganisms, 2 days","Staphylococcus aureus; PET, Staphylococcus aureus (SA), 2 days after inoculation",2.300
same,"number of microorganisms, 7 days",Staphylococcus aureus; [3],1
same,"number of microorganisms, 14 days",Staphylococcus aureus; [4],1
same,"number of microorganisms, 28 days",Staphylococcus aureus; [5],1
same,"number of microorganisms, 28 days","Aspergillus brasiliensis; PET, 28 days after inoculation",900.000
same,"number of microorganisms, 2 days","Escherichia coli; PET, 2 days after inoculation",6.700
same,"number of microorganisms, 7 days","Escherichia coli; PET, 7 days after inoculation",1
same,"number of microorganisms, 14 days","Escherichia coli; PET, 14 days after inoculation",1
same,"number of microorganisms, 28 days","Escherichia coli; PET, 28 days after inoculation",1
same,Maximum solubility in water,[1],0.1 % by weight
"CCCCC(O)C(C)O (stereo not drawn) [2,3-heptanediol]","germ count CA, 28 days",Candida albicans; [6],370.000
same,"CA germ count, 28 days",Candida albicans; [7],370.000
same,"number of microorganisms, 28 days",Candida albicans; [8],1
same,"germ count SA, 7 days",Staphylococcus aureus; [9],790.000
same,"SA germ count, 7 days",Staphylococcus aureus; [10],790.000
same,"germ count SA, 14 days",Staphylococcus aureus; [11],55
same,"SA germ count, 14 days",Staphylococcus aureus; [12],55
same,"germ count SA, 28 days",Staphylococcus aureus; [6],1
same,"SA germ count, 28 days",Staphylococcus aureus; [7],1
same,"number of microorganisms, 14 days",Staphylococcus aureus; [13],1
same,"number of microorganisms, 28 days",Staphylococcus aureus; [14],1
same,"number of microorganisms, 28 days",Staphylococcus aureus; [5],1
same,antimicrobial efficacy against yeast,yeast,antimicrobial efficacy
same,"germ count EC, 2 days",Escherichia coli; [15],170.000
same,"EC germ count, 2 days","Escherichia coli; 2 days after inoculation, substance at given % in test formulation",170.000
same,"germ count EC, 7 days",Escherichia coli; [9],1.600
same,"EC germ count, 7 days",Escherichia coli; [10],1.600
same,"germ count EC, 14 days",Escherichia coli; [11],82
same,"EC germ count, 14 days",Escherichia coli; [12],82
same,"germ count EC, 28 days",Escherichia coli; [6],1
same,"EC germ count, 28 days",Escherichia coli; [7],1
same,"number of microorganisms, 7 days","Escherichia coli; PET in shampoo, 7 days after inoculation, listed as 0,4% 2,3 Heptandiol",100.000
same,"number of microorganisms, 14 days","Escherichia coli; PET in shampoo, 14 days after inoculation, listed as 0,4% 2,3 Heptandiol",75.000
same,"number of microorganisms, 28 days","Escherichia coli; PET in shampoo, 28 days after inoculation, listed as 0,4% 2,3 Heptandiol",380.000
same,"number of microorganisms, 28 days","Escherichia coli; PET, 28 days after inoculation",1
same,Maximum solubility in water,[1],3.6 % by weight
same,"germ count PA, 2 days",Pseudomonas aeruginosa; [15],1
same,"PA germ count, 2 days",Pseudomonas aeruginosa; 2 days after inoculation,1
same,"germ count PA, 7 days",Pseudomonas aeruginosa; [9],1
same,"PA germ count, 7 days",Pseudomonas aeruginosa; 7 days after inoculation,1
same,"germ count PA, 14 days",Pseudomonas aeruginosa; [11],1
same,"PA germ count, 14 days",Pseudomonas aeruginosa; 14 days after inoculation,1
same,"germ count PA, 28 days",Pseudomonas aeruginosa; [6],1
same,"PA germ count, 28 days",Pseudomonas aeruginosa; 28 days after inoculation,1
"CCCCCCC(O)C(C)O (stereo not drawn) [2,3-nonanediol]","number of microorganisms, 28 days",Candida albicans; [8],1
same,"number of microorganisms, 28 days",Candida albicans; [2],970.000
same,"number of microorganisms, 14 days",Staphylococcus aureus; [13],1
same,"number of microorganisms, 28 days",Staphylococcus aureus; [14],1
same,"number of microorganisms, 7 days",Staphylococcus aureus; [3],66.000
same,"number of microorganisms, 14 days",Staphylococcus aureus; [4],1
same,"number of microorganisms, 28 days",Staphylococcus aureus; [5],1
same,"number of microorganisms, 14 days","Aspergillus brasiliensis; PET in shampoo, 14 days after inoculation, listed as 0,1% 2,3 Nonanediol",680.000
same,"number of microorganisms, 28 days","Aspergillus brasiliensis; PET in shampoo, 28 days after inoculation, listed as 0,1% 2,3 Nonanediol",530.000
same,"number of microorganisms, 14 days","Aspergillus brasiliensis; PET, 14 days after inoculation",890.000
same,antimicrobial efficacy against yeast,yeast,antimicrobial efficacy
same,"number of microorganisms, 2 days","Escherichia coli; PET, 2 days after inoculation",810.000
same,"number of microorganisms, 7 days","Escherichia coli; PET, 7 days after inoculation",27.000
same,"number of microorganisms, 14 days","Escherichia coli; PET, 14 days after inoculation",1.100
same,"number of microorganisms, 28 days","Escherichia coli; PET, 28 days after inoculation",1
same,Maximum solubility in water,[1],0.3 % by weight
"CCCCCC(O)C(C)O (stereo not drawn) [2,3-octanediol]",count at 2 days,"Candida albicans; CA, 2 days after inoculation, use concentration in label",660.000
same,count at 7 days,"Candida albicans; CA, 7 days after inoculation, use concentration in label",210.000
same,count at 14 days,"Candida albicans; CA, 14 days after inoculation, use concentration in label",120.000
same,count at 28 days,"Candida albicans; CA, 28 days after inoculation, use concentration in label",11.000
same,"number of microorganisms, 28 days",Candida albicans; [8],1
same,"number of microorganisms, 28 days",Candida albicans; [2],390.000
same,"SA germ count, 14 days",Staphylococcus aureus; [12],1
same,"SA germ count, 28 days",Staphylococcus aureus; [7],1
same,"number of microorganisms, 7 days","Staphylococcus aureus; PET in shampoo, Staphylococcus aureus (SA), 7 days after inoculation",1
same,"number of microorganisms, 14 days",Staphylococcus aureus; [13],1
same,"number of microorganisms, 28 days",Staphylococcus aureus; [14],1
same,"number of microorganisms, 7 days",Staphylococcus aureus; [3],84.000
same,"number of microorganisms, 14 days",Staphylococcus aureus; [4],1
same,"number of microorganisms, 28 days",Staphylococcus aureus; [5],1
same,count at 2 days,"Staphylococcus aureus; SA, 2 days after inoculation, use concentration in label",520.000
same,count at 7 days,"Staphylococcus aureus; SA, 7 days after inoculation, use concentration in label",9.300
same,count at 14 days,"Staphylococcus aureus; SA, 14 days after inoculation, use concentration in label",1
same,count at 28 days,"Staphylococcus aureus; SA, 28 days after inoculation, use concentration in label",1
same,count at 2 days,"Aspergillus brasiliensis; AB, 2 days after inoculation, use concentration in label",940.000
same,count at 7 days,"Aspergillus brasiliensis; AB, 7 days after inoculation, use concentration in label",660.000
same,count at 14 days,"Aspergillus brasiliensis; AB, 14 days after inoculation, use concentration in label",820.000
same,count at 28 days,"Aspergillus brasiliensis; AB, 28 days after inoculation, use concentration in label",560.000
same,"number of microorganisms, 14 days","Aspergillus brasiliensis; PET in shampoo, 14 days after inoculation, listed as 0,1% 2,3 Octanediol",250.000
same,antimicrobial efficacy against yeast,yeast,antimicrobial efficacy
same,count at 2 days,"Escherichia coli; EC, 2 days after inoculation, use concentration in label",130.000
same,count at 7 days,"Escherichia coli; EC, 7 days after inoculation, use concentration in label",19.000
same,count at 14 days,"Escherichia coli; EC, 14 days after inoculation, use concentration in label",290
same,count at 28 days,"Escherichia coli; EC, 28 days after inoculation, use concentration in label",18
same,"number of microorganisms, 28 days","Escherichia coli; PET in shampoo, 28 days after inoculation, listed as 0,4% 2,3 Octanediol",600.000
same,"number of microorganisms, 2 days","Escherichia coli; PET, 2 days after inoculation",48.000
same,"number of microorganisms, 7 days","Escherichia coli; PET, 7 days after inoculation",290
same,"number of microorganisms, 14 days","Escherichia coli; PET, 14 days after inoculation",1
same,"number of microorganisms, 28 days","Escherichia coli; PET, 28 days after inoculation",1
same,Maximum solubility in water,[1],1.5 % by weight
same,"PA germ count, 2 days",Pseudomonas aeruginosa; 2 days after inoculation,1
same,"PA germ count, 7 days",Pseudomonas aeruginosa; 7 days after inoculation,1
same,"PA germ count, 14 days",Pseudomonas aeruginosa; 14 days after inoculation,1
same,"PA germ count, 28 days",Pseudomonas aeruginosa; 28 days after inoculation,1
same,count at 2 days,"Pseudomonas aeruginosa; PA, 2 days after inoculation, use concentration in label",1
same,count at 7 days,"Pseudomonas aeruginosa; PA, 7 days after inoculation, use concentration in label",1
same,count at 14 days,"Pseudomonas aeruginosa; PA, 14 days after inoculation, use concentration in label",1
same,count at 28 days,"Pseudomonas aeruginosa; PA, 28 days after inoculation, use concentration in label",1
CCCC(O)CO (stereo not drawn) [Hydrolite ® 5 green],Maximum solubility in water,[1],50 % by weight
CCCCC(O)CO (stereo not drawn) [Hydrolite ® 6],Maximum solubility in water,[1],50 % by weight
CCCCCCC(O)CO (stereo not drawn) [Hydrolite ® 8],Maximum solubility in water,[1],0.5 % by weight
